System: ND3 neuronal cell line
Test: Measurement of nerve growth stimulation effect (neurite bearing assay, neurite length assay, number of cells)
Format: cell-based
Settings: relative cell number, DMSO well = 1; for Number of cells: ND3 cells, 6 h; for viability at 1 µM / viability at 3 µM / viability at 5 µM / viability at 10 µM / viability at 30 µM / viability at 100 µM: 6 hours
Method: To evaluate the nerve growth stimulation effect, neurite bearing assay (proportion of neurite-bearing cells) and neurite length assay (neurite length) were analyzed with reference to the method of Topalli et al. (Brain Research 1030 (2004), pp. 116-124).
An ND3 neuronal cell line (European Collection of Authenticated Cell Cultures) was seeded in a DMEM medium containing 10% fetal bovine serum (0.6×10^4 cells/1 mL) in a 24-well plate. 24 hours later, the medium of seeded cells was removed, and a solution in which the compound of the present disclosure that was sequentially diluted in dimethyl sulfoxide (DMSO) was adjusted in DIEM containing 0.1% bovine serum albumin so that the DMSO final concentration was 0.1%, was added to cells (evaluation performed in duplicate). After six hours from the addition, the proportion of neurite-bearing cells (the number of cells having a neurite longer than the diameter of the cell body/number of total cells), and the neurite length per cell were analyzed. The number of total cells, proportion of neurite-bearing cells, and neurite length per cell were analyzed using a MetaMorph Neurite Outgrowth Application Module (Molecular Devices Japan K.K.). The number of cells was defined as the relative cell number, taking the number of cells per well containing DMSO as 1. The relative activity of each compound when the maximum activity of 3-(15-methoxypentadecyl)-2,4,4-trimethylcyclohexa-2-en-1-one (compound 24) in each test was defined as 1 is shown (Table 9). For the compounds for which multiple tests were conducted, the average value was shown. Data with a number of cells of 0.5 or more was also used. Accordingly, if the number of cells was less than 0.5, the neurite length per cell and the proportion of neurite-bearing cells were defined as “-”.

Row | Number of cells (1 μM compound) | Number of cells (3 μM compound) | Number of cells (5 μM compound) | Number of cells (10 μM compound) | Number of cells (30 μM compound) | Number of cells (100 μM compound) | Structure (SMILES) | viability at 1 µM [%] | viability at 3 µM [%] | viability at 5 µM [%] | viability at 10 µM [%] | viability at 30 µM [%] | viability at 100 µM [%]
1 | 0.84 | 0.82 | 0.87 | 0.77 | 0.92 | 0.82 | CCCC1=C(CCCCCCCCCCCCCCCOC)C(C)(C)CCC1=O [Compound 61, 3-(15-methoxypentadecyl)-4,4-dimethyl-2-propylcyclohex-2-en-1-one] |  |  |  |  |  | 
2 |  |  |  |  |  |  | CCCOCCCCCCCCCCCCCC1=C(C)C(=O)CCC1(C)C [Compound 19, 2,4,4-trimethyl-3-(13-propoxytridecyl)cyclohex-2-en-1-one] | 98 | 105 | 85 | 88 | 111 | 105
3 | 0.84 | 0.85 | 0.78 | 0.80 | 0.41 | 0.38 | COCCCCCCCCCCCCCCC1=C(C)C(=O)CC1(C)C [Compound 72, 3-(14-methoxytetradecyl)-2,4,4-trimethylcyclopent-2-en-1-one] |  |  |  |  |  | 
4 |  |  |  |  |  |  | CC1=C(CCCCCCCCCCCCCCCCO)C(C)(C)CCC1=O [Compound 5, 3-(16-hydroxyhexadecyl)-2,4,4-trimethylcyclohex-2-en-1-one, reference compound] | 111 | 109 | 105 | 83 | 49 | 40
5 | 0.89 | 0.93 | 0.94 | 0.80 | 0.75 | 0.80 | CC1=C(CCCCCCCCCCCCCCC#N)C(C)(C)CC1=O [Compound 75, 15-(2,5,5-trimethyl-3-oxocyclopent-1-en-1-yl)pentadecanitrile] |  |  |  |  |  | 
6 |  |  |  |  |  |  | CCOC(=O)OCCCCCCCCCCCCCCCC1=C(C)C(=O)CCC1(C)C [Compound 57, ethyl (15-(2,6,6-trimethyl-3-oxocyclohex-1-en-1-yl)pentadecyl) carbonate] | 96 | 93 | 86 | 90 | 97 | 100
7 | 0.74 | 0.75 | 0.71 | 0.73 | 0.60 | 0.26 | CC1=C(CCCCCCCCCCCCCCC(N)=O)C(C)(C)CC1=O [Compound 74, 15-(2,5,5-trimethyl-3-oxocyclopent-1-en-1-yl)pentadecanamide] |  |  |  |  |  | 
8 |  |  |  |  |  |  | COCCCCCCCCCCCCCCCC1=C(COC)C(=O)CCC1(C)C [Compound 42, 2-(methoxymethyl)-3-(15-methoxypentadecyl)-4,4-dimethylcyclohex-2-en-1-one] | 86 | 88 | 76 | 83 | 87 | 83
9 | 1.15 | 1.11 | 0.80 | 0.79 | 0.39 | 0.04 | COCCCCCCCCCCCCCCCC1=C(C)C(N)CCC1(C)C (centres unmarked) [Compound 66, 3-(15-methoxypentadecyl)-2,4,4-trimethylcyclohex-2-en-1-amine] |  |  |  |  |  | 
10 | 1.13 | 1.05 | 0.84 | 0.91 | 1.11 | 1.16 | COCCCCCCCCCCCCCCCC1C(C)C(=O)CCC1(C)C (centres unmarked) [Compound 63, 3-(15-methoxypentadecyl)-2,4,4-trimethylcyclohexan-1-one] |  |  |  |  |  | 
11 |  |  |  |  |  |  | COCCCCCCCCCCCCCCCC1=C(C)C(=O)C(C)C1C (centres unmarked) [Compound 46, 3-(15-methoxypentadecyl)-2,4,5-trimethylcyclopent-2-en-1-one] | 94 | 99 | 83 | 78 | 102 | 98
12 |  |  |  |  |  |  | COCCCCCCCCCCCCCCCCC1=C(C)C(=O)CCC1(C)C [Compound 29, 3-(16-methoxyhexadecyl)-2,4,4-trimethylcyclohex-2-en-1-one] | 107 | 98 | 96 | 92 | 97 | 93
13 |  |  |  |  |  |  | [2H]C([2H])([2H])OCCCCCCCCCCCCCCCC1=C(C)C(=O)CCC1(C)C [Compound 27, 3-(15-(methoxy-d3)pentadecyl)-2,4,4-trimethylcyclohex-2-en-1-one] |  | 90 | 87 | 83 | 83 | 88
14 |  |  |  |  |  |  | CC1=C(CCCCCCCCCCCCO)C(C)(C)CCC1=O [Compound 1, 3-(12-hydroxydodecyl)-2,4,4-trimethylcyclohex-2-en-1-one, reference compound] | 103 | 105 | 99 | 103 | 99 | 9
15 |  |  |  |  |  |  | CCNC(=O)OCCCCCCCCCCCCCCCC1=C(C)C(=O)CCC1(C)C [Compound 56, 15-(2,6,6-trimethyl-3-oxocyclohex-1-en-1-yl)pentadecylethylcarbamate] | 94 | 106 | 93 | 95 | 95 | 93
16 |  |  |  |  |  |  | CC1=C(CCCCCCCCCCCCCCCOC2CCCCO2)C(C)(C)CCC1=O (centres unmarked) [Compound 6, 2,4,4-trimethyl-3-(15-((tetrahydro-2H-pyran-2-yl)oxy)pentadecyl)cyclohex-2-en-1-one, reference compound] | 97 | 85 | 67 | 64 | 72 | 92
17 |  |  |  |  |  |  | CCCCOCCCCCCCCCCCCC1=C(C)C(=O)CCC1(C)C [Compound 15, 3-(12-butoxydodecyl)-2,4,4-trimethylcyclohex-2-en-1-one] | 93 | 100 | 95 | 88 | 101 | 92
18 | 1.05 | 1.09 | 0.86 | 0.87 | 1.05 | 1.09 | COCCCCCCCCCCCCCCCC1=C(C)C(O)CCC1(C)C (centres unmarked) [Compound 65, 3-(15-methoxypentadecyl)-2,4,4-trimethylcyclohex-2-en-1-ol] |  |  |  |  |  | 
19 |  |  |  |  |  |  | COCCCCCCCCCCCCCCCC1=C(C)C(=O)CCC1 [Compound 38, 3-(15-methoxypentadecyl)-2-methylcyclohex-2-en-1-one] | 96 | 101 | 91 | 86 | 80 | 52
20 |  |  |  |  |  |  | COCCCCCCCCCCCCCCCC1=CC(=O)CCC1 [Compound 37, 3-(15-methoxypentadecyl)cyclohex-2-en-1-one] | 99 | 102 | 84 | 89 | 107 | 97
21 | 0.85 | 0.92 | 0.73 | 0.71 | 0.95 | 0.89 | COCCCCCCCCCCCCCCCC1=C(C)/C(=N/OC)CCC1(C)C [Compound 68, 3-(15-methoxypentadecyl)-2,4,4-trimethylcyclohex-2-en-1-one O-methyloxime] |  |  |  |  |  | 
22 |  |  |  |  |  |  | CCOCCCCCCCCCCCCC1=C(C)C(=O)CCC1(C)C [Compound 12, 3-(12-ethoxydodecyl)-2,4,4-trimethylcyclohex-2-en-1-one] | 96 | 90 | 77 | 69 | 11 | 3
23 |  |  |  |  |  |  | CC1=C(CCCCCCCCCCCCCOC(C)C)C(C)(C)CCC1=O [Compound 18, 3-(13-isopropoxytridecyl)-2,4,4-trimethylcyclohex-2-en-1-one] | 116 | 106 | 89 | 97 | 95 | 89

— US20230295068A1, “NOVEL CYCLOALKENONE COMPOUND OR SALT THEREOF” (TAIHO PHARMACEUTICAL CO., LTD., priority 2020, published 2023)
